The values below come from patent publication US6846921B2, “Chimeric antisense oligonucleotides and cell transfecting formulations thereof” (Chiron Corporation, priority 1999, dated 2005).

{5'-OMe-dT} = O-methyl thymidine blocking nucleotide (W), phosphodiester-linked; {3'-3'N} = to-3' linked nucleotide blocking group (Z), phosphodiester-linked; d = 2'-deoxy (DNA); m = 2'-O-methyl Some results are limits rather than exact numbers.

The subject of series [1] is AKT1 mRNA. The experiment in a line: AKT1 mRNA knockout after transfection of chimeric antisense oligonucleotide. The format is cell-based, human. The following applies: HT1080 cells. How it is done:
(§1) With the exception of the mTyr oligo (SEQ ID NO: 17-18), which was transfected into B16 melanoma cells, all oligos shown in Table 1 were transfected into HT1080 cells, using “Lipitoid 1” (see below) for transfection, and incubated for 24 hours. The table gives the approximate level of mRNA knockout observed in each case.
The same oligos were also delivered by commercial lipids (Effectene™) and peptoids ((NaeNmpeNmpe)3).
For each transfection mixture, a carrier molecule, preferably a lipitoid or cholesteroid, was prepared to a working concentration of 0.5 mM in water, sonicated to yield a uniform solution, and filtered through a 0.45 μm PVDF membrane. […]
(§2) The level of target mRNA was quantitated using the Roche LightCycler™ real-time PCR machine. […]
(§3) An amplification mixture was prepared by mixing in the following order: 1×PCR buffer II, 3 mM MgCl2, 140 μM each dNTP, 0.175 pmol each oligo, 1:50,000 dil of SYBR® Green, 0.25 mg/ml BSA, 1 unit Taq polymerase, and H2O to 20 μl. (PCR buffer II is available in 10×concentration from Perkin-Elmer (Norwalk, Conn.). In 1×concentration it contains 10 mM Tris pH 8.3 and 50 mM KCl. SYBR® Green (Molecular Probes, Eugene, Oreg.) is a dye which fluoresces when bound to double stranded DNA. As double stranded PCR product is produced during amplification, the fluorescence from SYBR® Green increases.) […]

Another series relates to CHK1 mRNA. Briefly: CHK1 mRNA knockout after transfection of chimeric antisense oligonucleotide. The format is cell-based, human. How it is done: Antisense chimeric oligonucleotides based on the formula above, having sequences directed against AKT1 (SEQ ID NO: 1) or AKT2 (SEQ ID NO: 2), were prepared as described in Example 1. The oligonucleotides also included a 5′-terminal 5′-O-methyl thymidine, as indicated by the formula above. In these oligonucleotides, X^1 and X^2 were seven-base blocks of 2′-O-methyl PO RNA, Y is PS DNA, Z was a 3′-to-3′ linked nucleotide, and W was a 5′-O-methyl thymidine. Both Z and W were linked to the respective X blocks via phosphodiester linkages. […] FIGS. 5 and 6 show levels of endogenous AKT1 mRNA in colon cancer cells and HT1080 cells, respectively, transfected with anti-AKT1 chimeric oligonucleotides (SEQ ID NO: 1). […]
as §2, §3

For another series, the system named is CK1E mRNA. The experiment in a line: CK1E mRNA knockout after transfection of chimeric antisense oligonucleotide. The format is cell-based, human. The note with it: HT1080 cells, Lipitoid 1 for transfection, incubated 24 hours, approximate level. How it is done: as §1
(§4) For each transfection mixture, a carrier molecule, preferably a lipitoid or cholesteroid, was prepared to a working concentration of 0.5 mM in water, sonicated to yield a uniform solution, and filtered through a 0.45 μm PVDF membrane. The antisense oligonucleotide was prepared to a working concentration of 100 μM in sterile Millipore water. […]
as §2, §3

For the next series, the system named is E1AF mRNA. Briefly: E1AF mRNA knockout after transfection of chimeric antisense oligonucleotide. The format is cell-based, human. The following applies: HT1080 cells, Lipitoid 1 for transfection, incubated 24 hours, approximate level. How it is done: as §1, §4, §2, §3
Another series concerns IGFR1 mRNA. The experiment in a line: IGFR1 mRNA knockout after transfection of chimeric antisense oligonucleotide. The format is cell-based, human. The following applies: HT1080 cells, Lipitoid 1 for transfection, incubated 24 hours, approximate level. On the procedure: as §1, §4, §2, §3
Another series relates to ILK mRNA. The experiment in a line: ILK mRNA knockout after transfection of chimeric antisense oligonucleotide. The format is cell-based, human. The following applies: HT1080 cells, Lipitoid 1 for transfection, incubated 24 hours, approximate level. How it is done: as §1, §4, §2, §3
In the next series the test system is chk1 kinase. Briefly: chk1 kinase activity after antisense transfection. The format is cell-based, human. The following applies: hCHK1 antisense, transfected cells.
Series [2] has as its system G2 cell cycle checkpoint control. Briefly: chk1 function (G2 cell cycle checkpoint control) after antisense transfection. The format is cell-based, human. The following applies: hCHK1 antisense, transfected cells.
The test system of a further series is Lovo colon cancer cells. Briefly: 4 day cell proliferation assay after transfection, Lovo. The format is cell-based. The note with it: 4 day assay, 50-300 nM reverse control PDK1 oligo, compared with Lipitoids 1 and 2. On the procedure: (§5) (Again, reverse control PDK1 chimeric oligonucleotides, expected to be non-active, were used.). […] This effect is not limited to this cell type, and was also observed in proliferation assays of Km12L4 colon cancer cells (FIG. 6) and Colo320DM colon cancer cells (FIG. 7).
(§6) Cells were seeded into 96 well plates at a density of 5000 cells per well. For a 4 day proliferation assay, 5 independent 96 well plates were prepared, one for each day. After overnight incubation, cells were transfected using the procedure described above. On each day of the proliferation assay, all medium was removed from one plate and frozen at −70° C. On day four, all plates were developed with the Quantos™ assay kit (Stratagene, La Jolla, Calif.) which determines the amount of DNA, and thus the number of cells, in each well.

In series [3] the test system is Colo320DM colon cancer cells. The experiment in a line: Cell proliferation assay after transfection, Colo320DM. The format is cell-based. The note with it: compared with Lipitoids 1 and 2. On the procedure: as §5, §6
For series [4], the system named is AKT1 mRNA. The experiment in a line: AKT1 mRNA knockout in colon cancer cell line (Lovo) with different carriers. The format is cell-based. The note with it: Lovo cells; delivery of chimeric anti-AKT1 oligo. On the procedure: For each transfection mixture, a carrier molecule, preferably a lipitoid or cholesteroid, was prepared to a working concentration of 0.5 mM in water, sonicated to yield a uniform solution, and filtered through a 0.45 μm PVDF membrane. The antisense oligonucleotide was prepared to a working concentration of 100 μM in sterile Millipore water.
The oligonucleotide was diluted in OptiMEM™ (Gibco/BRL), in a microfuge tube, to 2 μM, or approximately 20 μg oligo/ml of OptiMEM™. In a separate microfuge tube, lipitoid or cholesteroid, typically in the amount of about 1.5-2 nmol lipitoid/μg antisense oligonucleotide, was diluted into the same volume of OptiMEMTm used to dilute the oligonucleotide. The diluted antisense oligonucleotide was immediately added to the diluted lipitoid and mixed by pipetting up and down.
Cells were plated on tissue culture dishes one day in advance of transfection, in growth media with serum, to yield a density at transfection of 60-90%. The oligonucleotide/lipitoid mixture was added to the cells, immediately after mixing, to a final concentration of 100-300 nM antisense oligonucleotide. Cells were incubated with the transfection mixture at 37° C., 5% CO2 for 4-24 hours. After incubation, the transfection mixture was removed and replaced with normal growth media with serum.
as §2

For series [5], the system named is human fibrosarcoma (HT1080) cells. Briefly: Delivery of FITC-labeled chimeric oligonucleotides, fluorescence analysis. The format is cell-based. From the text: One method of delivery involves the use of transfection agents known as “lipitoids” and “cholesteroids”, described, for example, in co-owned PCT publications WO 98/06437 and WO 99/08711 (Zuckermann et al.), based on U.S. Ser. Nos. 60/023,867, 60/054,743, and 09/132,808, which are hereby incorporated by reference. These lipid-cationic peptoid conjugates are shown in these references to be effective reagents for the delivery of plasmid DNA to cells in vitro. It is shown herein that such compounds efficiently deliver oligonucleotides into a variety of primary and tumor cell lines. The efficiency of delivery was assessed by fluorescence analysis of FITC-labeled oligonucleotides, or by monitoring mRNA levels after transfection of chimeric antisense oligonucleotides, as described further below.
The extent of delivery of FITC-labeled chimeric oligonucleotides into human fibrosarcoma (HT1080) cells was assessed via fluorescence analysis. (All oligonucleotides used in the subsequent studies were chimeric oligonucleotides as described for the studies represented in Table 1.) The sequence of the oligonucleotides was the reverse control of PDK1 (SEQ ID NO: 25, the reverse of SEQ ID NO: 23) so that the effect of the oligonucleotides on the cells would be minimal. The oligonucleotides were transfected via complexation with (a) a commercially available transfection agent, Effectene™, (b) the peptoid (NaeNmpeNmpe)3 (peptoid 1), (c) Lipitoid 1, in a 1:4 charge ratio of oligo to lipitoid, and (d) Lipitoid 1, in a 1:3 charge ratio.

Setting [6] is: oligo SEQ ID NO: 25, in comparison to Effectene.

In the series with AKT1 mRNA [1] (AKT1, Lipitoid 1 for transfection, incubated 24 hours, approximate level), “1 (CCATAGTGAGGTTGCATCTGGTGCC; antisense; sugars from the 5' end m7 d11 m7, 5' {5'-OMe-dT}, 3' {3'-3'N}, backbone and T or U not given here; 2'-OMe blocks are phosphodiester, DNA gap is phosphorothioate) [compound 1]” returned a mRNA knockout greater than 90%. “3 (CCCAGAGCCGATGGTCCGATCATGT; antisense; sugars from the 5' end m7 d11 m7, 5' {5'-OMe-dT}, 3' {3'-3'N}, backbone and T or U not given here; 2'-OMe blocks are phosphodiester, DNA gap is phosphorothioate) [compound 3]” showed a mRNA knockout with CHK1 mRNA (CHK1, HT1080 cells, Lipitoid 1 for transfection, incubated 24 hours, approximate level) greater than 90%. The substance “6 (AGCGGCAGAAGTTGAGGTATGTTGA; antisense; sugars from the 5' end m7 d11 m7, 5' {5'-OMe-dT}, 3' {3'-3'N}, backbone and T or U not given here; 2'-OMe blocks are phosphodiester, DNA gap is phosphorothioate) [compound 6]” registered a mRNA knockout with CK1E mRNA greater than 80%. For “7 (CCTGCCAGTATGAAGTTGGGAAGCG; antisense; sugars from the 5' end m7 d11 m7, 5' {5'-OMe-dT}, 3' {3'-3'N}, backbone and T or U not given here; 2'-OMe blocks are phosphodiester, DNA gap is phosphorothioate) [compound 7]”, the mRNA knockout in the series on E1AF mRNA is on record as greater than 90%. With “9 (TCTTCCTCACAGACCTTCGGGCAAG; antisense; sugars from the 5' end m7 d11 m7, 5' {5'-OMe-dT}, 3' {3'-3'N}, backbone and T or U not given here; 2'-OMe blocks are phosphodiester, DNA gap is phosphorothioate) [compound 9]”, the mRNA knockout in the series with IGFR1 mRNA is listed as greater than 80%. In the series with ILK mRNA, “11 (GTGTTTGTTCAGGGTTCCATTTCGG; antisense; sugars from the 5' end m7 d11 m7, 5' {5'-OMe-dT}, 3' {3'-3'N}, backbone and T or U not given here; 2'-OMe blocks are phosphodiester, DNA gap is phosphorothioate) [compound 11]” returned a mRNA knockout greater than 90%. Regarding “CCATAGTGAGGTTGCATCTGGTGCC (chimeric modifications, further chemistry not given here) [SEQ ID NO: 1, chimeric antisense oligonucleotide directed against AKT1]”, in the series on AKT1 mRNA [1] (L1-transfected, versus control oligos and delivery by Effectene or peptoid (NaeNmpeNmpe)3), the “reduction in endogenous AKT1 mRNA level (FIG. 3)” value was “most pronounced reduction”.

As to “CCCAGAGCCGATGGTCCGATCATGT (sugars from the 5' end m7 d11 m7, 5' {5'-OMe-dT}, 3' {3'-3'N}, backbone and T or U not given here; 2'-OMe blocks are phosphodiester, DNA gap is phosphorothioate) [SEQ ID NO: 3, chimeric antisense oligonucleotide directed against hCHK1]”, the chk1 kinase activity entry in the series on chk1 kinase is recorded as “loss of chk1 kinase activity”. For the same substance, in the series with CHK1 mRNA (hCHK1 antisense, transfected cells), the “degradation of endogenous mRNA” value is given as “degradation of endogenous mRNA”. For the same substance, the “chk1 function (G2 cell cycle checkpoint control)” value in series [2] is reported as “loss of chk1 function”. In the case of “Chol-Ahx-(NaeNmpeNmpe)3 [Cholesteroid 2]”, the “proliferation and viability following oligonucleotide transfection (FIG. 5)” value with Lovo colon cancer cells is “significant increase in proliferation and viability”. The “proliferation following oligonucleotide transfection (FIG. 7)” value in series [3] is listed as “also observed”. Consider “Chol-β-ala-(NaeNiaNia)3 [Cholesteroid 3]”, for which the “proliferation and viability following oligonucleotide transfection (FIG. 5)” value in the series with Lovo colon cancer cells was “significant increase in proliferation and viability”. Moreover, the “proliferation following oligonucleotide transfection (FIG. 7)” value in series [3] is on record as “also observed”. Turning to “Chol-β-ala-(NaeNmpeNmpe)3 [Cholesteroid 1]”, in the series on AKT1 mRNA [4], the “AKT1 mRNA knockout by carrier (FIG. 4)” value is “better AKT1 mRNA knockout than delivery by Lipitoid 1 or Lipitoid 2”.

On to DMPE(NaeNmpeNmpe)3 [Lipitoid 1], for which, in series [5] (1:4 charge ratio of oligo to lipitoid versus 1:3), the “delivery effectiveness by charge ratio” value is “more effective than the 1:3 ratio”. In addition, in series [5] (setting [6]), the “nuclear delivery of the oligonucleotide” value is listed as “higher degree of nuclear delivery” and the “transfection efficiency of FITC-labeled oligonucleotide” value is recorded as “significantly higher transfection efficiency”.
